Results taken from patent EP1619197A1, “Substituted Pyrido[3',2':4,5]thieno[3,2-d]pyrimidin-2,4(1H,3H)diones and -4(3H)ones as well as Pyrido[3',2':4,5]furo[3,2-d]-pyrimidin-2,4(1H,3H)diones und -4(3H)ones as inhibitors of TNF-alpha release” (Curacyte Discovery GmbH, priority 2004, dated 2006).

These molecules were tested on TNFα-Freisetzung (assay: Inhibition of TNFα release after LPS stimulation of human whole blood (ELISA)). Details: Homo sapiens, 24 h; bei 10nM; read-out: TNFα-Freisetzung hemmen.
Format: cell-based
From the text: Methodenbeschreibung der Hemmung der TNFα Freisetzung nach LPS Stimulation von humanem Vollblut
Die Stimulierung isolierter Leukozyten für die Freisetzung von Zytokinen kann auf verschiedenen Wegen erfolgen. Lipopolysaccharide (LPS) stellen einen Stimulus für die Untersuchung der Freisetzung von TNFα dar. LPS ist Bestandteil bakterieller Zellwände und wird beim Abtöten der Bakterien (durch Antibiotika oder das natürliche Immunsystem) freigesetzt. LPS stimuliert insbesondere die Aktivität phagozytierender Leukozyten (Gewebsmakrophagen, Granulozyten, Monozyten) und verursacht die Infiltration von Leukozyten vom peripheren Blut in das betroffene Gewebe. Ein Zytokin von besonderer Bedeutung für diese Mechanismen ist TNFα, das in großen Mengen durch die betroffenen Zellen sezerniert wird. Hauptquelle dabei sind Monozyten und Makrophagen. TNFα initiiert und prolongiert den Entzündungsprozess im Zusammenspiel mit anderen Mediatoren.
Für die Untersuchung des Effektes auf die LPS-induzierte TNFα-Freisetzung wurde eine Methode verwendet, die von MARX et al. (Marx D, Tassabehji M, Heer S, Hüttenbrink KB, Szelenyi I (2002) Pulmonary Pharmacology & Therapeutics 15 7-15) beschrieben wurde. Die Methode in Kürze: Humanes Blut wurde von verschiedenen Spendern entnommen, durch Zusatz von 10 mM Na-Citrat ungerinnbar gemacht und 1:5 mit RPMI 1640 Zellkulturmedium verdünnt. Die Testsubstanzen wurden den Blutproben in verschiedenen Konzentrationen zugefügt. 15 Minuten später wurden die Leukozyten durch Zusatz von Lipopolysacchariden (LPS) aus Salmonella abortus equi in einer Endkonzentration von 1µg/ml stimuliert. Nach Inkubation der Testansätze für 24 Stunden bei 37°C. und unter 5% CO2 in wassergesättigter Luft, wurde das Blut zentrifugiert und die Konzentration an TNFα im zellfreien Überstand unter Verwendung eines käuflichen ELISA (BD Biosciences) nach Angaben des Herstellers exakt vermessen.
`CCCc1nc2c(sc3nc(-c4ccccc4)cc(-c4cccnc4)c32)c(=O)[nH]1` [7-Phenyl-2-n-propyl-9-(pyrid-3-yl)-pyrido[3',2':4,5]thieno[3,2-d]pyrimidin-4(3H)-on] showed an inhibition at 0.01 µM of over 20%.
With `COc1ccc(-c2cc(C)c3c(n2)sc2c(=O)[nH]c(=O)[nH]c23)cc1` [7-(4-Methoxyphenyl)-9-methyl-pyrido[3',2':4,5]thieno[3,2-d]pyrimidin-2,4-dion] the inhibition at 0.01 µM was over 20%.
Work on `Cc1cc(C)c2c(n1)sc1c(=O)[nH]c(=O)[nH]c12` [7,9-Dimethyl-pyrido[3',2':4,5]thieno[3,2-d]pyrimidin-2,4-dion] yielded an inhibition at 0.01 µM of over 20%.
`COc1ccc(-c2cc(C)c3c(n2)sc2c(=O)[nH]c(=O)[nH]c23)cc1OC` [7-(3,4-Dimethoxyphenyl)-9-methyl-pyrido[3',2':4,5]thieno[3,2-d]pyrimidin-2,4-dion] was tested, and the inhibition at 0.01 µM was over 20%.
Work on `CCc1nc2c(sc3nc(-c4ccccc4)cc(C)c32)c(=O)[nH]1` [2-Ethyl-9-methyl-7-phenyl-pyrido[3',2':4,5]thieno[3,2-d]pyrimidin-4-on] yielded an inhibition at 0.01 µM of over 20%.
For `Cc1cc(-c2ccccc2)nc2sc3c(=O)[nH]c(=O)[nH]c3c12` [9-Methyl-7-phenyl-pyrido[3',2':4,5]thieno[3,2-d]pyrimidin-2,4-dion], the inhibition at 0.01 µM was over 20%.

Same assay, conditions: Homo sapiens, 24 h; bei 100nM; read-out: TNFα-Freisetzung hemmen
`CSc1nc2c(sc3nc(-c4ccccc4)cc(C)c32)c(=O)[nH]1` [9-Methyl-2-methylthio-7-phenyl-pyrido[3',2':4,5]thieno[3,2-d]pyrimidin-4(3H)-on] was tested, and the inhibition at 0.1 µM was over 10%.
For `O=c1[nH]c(=O)c2sc3nc(-c4ccccc4)cc(-c4ccccc4)c3c2[nH]1` [7,9-Diphenyl-pyrido[3',2':4,5]thieno[3,2-d]pyrimidin-2,4-dion], the inhibition at 0.1 µM was over 10%.
For `Cc1c(-c2ccc([N+](=O)[O-])cc2)c(-c2ccccc2)nc2sc3c(=O)[nH]c(=O)[nH]c3c12` [9-Methyl-8-(4-nitrophenyl)-7-phenyl-pyrido[3',2':4,5]thieno[3,2-d]pyrimidin-2,4(1H,3H)-dion], the inhibition at 0.1 µM was over 10%.

Same assay, conditions: bei 10nM
Work on `Cc1cc(-c2ccc(F)cc2)nc2sc3c(=O)[nH]c(=O)[nH]c3c12` [7-(4-Fluorphenyl)-9-methyl-pyrido[3',2':4,5]thieno[3,2-d]pyrimidin-2,4-dion] yielded a TNFα-Freisetzung hemmen of over 20%.
In the case of `O=C(O)c1nc2c(sc3nc(-c4ccccc4)ccc32)c(=O)[nH]1` [7-Phenyl-pyrido[3',2':4,5]thieno[3,2-d]pyrimidin-4(3H)-on-2-carbonsäure], the TNFα-Freisetzung hemmen was over 20%.

Same assay, conditions: bei 100nM
In the case of `Cc1nc2c(sc3nc(-c4ccc(Br)cc4)cc(C)c32)c(=O)[nH]1` [7-(4-Brom-phenyl)-2,9-dimethyl pyrido[3',2':4,5]thieno[3,2-d]pyrimidin-4(3H)-on], the TNFα-Freisetzung hemmen was over 10%.
`CCOC(=O)c1nc2c(sc3nc(-c4ccccc4)ccc32)c(=O)[nH]1` [7-Phenyl-pyrido[3',2':4,5]thieno[3,2-d]pyrimidin-4(3H)-on-2-carbonsäureethylester] showed a TNFα-Freisetzung hemmen of over 10%.
